Results taken from PMC13286573, “Exploration of precision coregulator TR-FRET identifies diverse signatures for LXR ligands relevant to discovery of nonlipogenic ABCA1 inducers” (eLife, 2026).
Entries after “also recorded” stand apart in the source; their conditions may differ. Read-outs that look alike come from different tables or passages of the source.

Experiments:
[1] = tested on: SREBF1, FAS, and SCD1; assay: RT-PCR of lipogenic genes SREBF1, FAS, SCD1 in HepG2 cells; type: cell-based, human; conditions: HepG2, same conditions as SRE-luc
Method: Three of the biphenyl sulfones, XL041, XL652, and SR9238, gave anomalous activation data at concentrations above 1 µM, associated with interference with the nanoluciferase reporter (Figure 5—figure supplement 1). Owing to the anomalous response in the reporter assay, we measured lipogenic genes, SREBF1, FAS, and SCD1 by RT-PCR in HepG2 cells in response to treatment with the biphenyl sulfones (Figure 5G–I).
HepG2 cells were seeded in 12-well plates and treated with compounds for 24 hr. Following treatment, cells were washed once with PBS and then lysed in 350 μL of RLT buffer (Qiagen). Lysates were immediately frozen at −80 °C until RNA extraction. Total RNA was extracted using RNeasy Plus Mini columns (Qiagen) according to the manufacturer’s instructions. RNA concentration and purity were assessed using the A260/A280 ratio measured on a Synergy Neo2 plate reader (BioTek). […] Quantitative PCR was performed using TaqMan Gene Expression Master Mix (Invitrogen) with 2 μL of cDNA and gene-specific TaqMan probes in a 20 μL reaction volume per well. The following TaqMan assays were used: ABCA1: Hs01059101_m1, SREBF1: Hs01088691_m1, SCD: Hs01682761_m1, FASN: Hs01005622_m1, and HPRT1 (endogenous control): Hs02800695_m1. qPCR was performed on a StepOne Real-Time PCR System (Applied Biosystems), and gene expression was quantified using the ΔΔCt method.

[2] = target: T1, LXRα (Homo sapiens, UniProt Q13133); assay: SRC-1 coactivator recruitment to LXRα, coregulator TR-FRET (CRT); type: biochemical; design: The CRT selectivity assay incorporates GST-tagged LXR-LBD; purchased Thermo Fisher Scientific PV4657; conditions: in the presence of 24HC (3 µM)
T1 sequence (Q13133 209-447 limits assumed): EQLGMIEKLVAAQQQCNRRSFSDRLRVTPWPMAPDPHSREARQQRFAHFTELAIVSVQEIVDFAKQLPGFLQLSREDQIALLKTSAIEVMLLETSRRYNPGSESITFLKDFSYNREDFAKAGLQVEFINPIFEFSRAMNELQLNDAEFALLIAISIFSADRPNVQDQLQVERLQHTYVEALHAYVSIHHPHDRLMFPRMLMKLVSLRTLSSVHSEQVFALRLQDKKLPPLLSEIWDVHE

[3] = tested on: mouse model of non-alcoholic steatohepatitis (NASH); design: method as in Griffett et al., 2015; Griffett and Burris, 2016; conditions: ref Griffett et al., 2015; Griffett and Burris, 2016; cited from earlier work
[4] = tested on: LXR; assay: Corepressor (NCOR2, SMRT2) binding to LXR, CRT, statements across isoforms; type: biochemical; conditions: monoplex CRT, absence of coactivator
[5] = target: T1, LXRα; assay: NCOR2 corepressor binding to LXRα, CRT; type: biochemical; design: The CRT selectivity assay incorporates GST-tagged LXR-LBD; purchased Thermo Fisher Scientific PV4657; conditions: read-out: NCOR2α, relative % activity at 1 μM
[6] = target: T1, LXRα; assay: SMRT2 corepressor binding to LXRα, CRT; type: biochemical; design: The CRT selectivity assay incorporates GST-tagged LXR-LBD; purchased Thermo Fisher Scientific PV4657; conditions: read-out: SMRT2α, relative % activity at 1 μM
[7] = target: T2, LXRβ (Homo sapiens, UniProt P55055); assay: SRC-1 coactivator recruitment to LXRβ, coregulator TR-FRET (CRT); type: biochemical; design: The CRT selectivity assay incorporates GST-tagged LXR-LBD; purchased Thermo Fisher Scientific PV4660
T2 sequence (P55055 222-460 limits assumed): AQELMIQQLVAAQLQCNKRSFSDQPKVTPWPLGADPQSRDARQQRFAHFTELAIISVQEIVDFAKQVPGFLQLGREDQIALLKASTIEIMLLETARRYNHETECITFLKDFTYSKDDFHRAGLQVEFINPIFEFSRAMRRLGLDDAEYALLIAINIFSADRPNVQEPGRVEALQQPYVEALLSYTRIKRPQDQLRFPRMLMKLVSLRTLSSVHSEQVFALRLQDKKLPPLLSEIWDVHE

[8] = target: T2, LXRβ; assay: SMRT2 corepressor binding to LXRβ, CRT; type: biochemical; design: The CRT selectivity assay incorporates GST-tagged LXR-LBD; purchased Thermo Fisher Scientific PV4660; conditions: for activity at 1 µM: read-out: SMRT2β, relative % activity at 1 μM
[9] = target: T2, LXRβ; conditions: in the absence of agonist
[10] = target: T1, LXRα; conditions: in the absence of agonist
[11] = tested on: obese mice on HFD; design: method as in Griffett et al., 2015; conditions: ref Griffett et al., 2015; cited from earlier work
[12] = ligand 1 µM, interpolated from concentration-response, normalized, heat map Figure 9A

Row | activity at 1 µM [5, 12] | activity at 1 µM [6, 12] | Antagonism of 24HC agonism at LXRβ (SRC-1 CRT) [7] | Effect on SMRT2 binding to LXRβ [8] | Compound | Lipogenic gene transcription (SREBF1, FAS, SCD1) by RT-PCR [1] | Antagonism of 24HC agonism at LXRα (SRC-1 CRT) [2] | Hepatic effects in NASH mouse model [3] | Corepressor (NCOR2, SMRT2) displacement or stabilization, across LXR isoforms [4] | activity at 1 µM [8] | Coactivator recruitment to LXRβ [9] | Coactivator recruitment to LXRα [10] | activity at 1 µM [5] | activity at 1 µM [6] | Plasma TG [11] | Antagonism of 24HC agonism at LXRβ (SRC-1 CRT) ([7]; in the presence of 24HC (3 µM))
1 | 97.7% | 92.9% | antagonized the agonism of 24HC at LXRβ | selectively displace SMRT2 from LXRβ | Cc1cc(C)c(S(=O)(=O)N(Cc2ccc(-c3cccc(S(C)(=O)=O)c3)cc2)Cc2ccc(C(F)(F)F)o2)c(C)c1 [GSK2033] | reducing lipogenic gene transcription below baseline | without effect on LXRα | no beneficial effects on hepatic steatosis | little or no ability to displace NCOR2 and SMRT2 corepressors from LXR; also recorded: does not stabilize a conformation that disrupts corepressor binding to LXRα | 93.4% |  |  |  |  |  | 
2 |  |  |  |  | CCOC(=O)c1ccc(CN(Cc2ccc(-c3cccc(S(C)(=O)=O)c3)cc2)S(=O)(=O)c2c(C)cc(C)cc2C)o1 [SR9238] | reducing lipogenic gene transcription below baseline | without effect on LXRα | significantly reduced hepatic inflammation and fibrosis | strong agonist responses | 69.2% | very weakly supported coactivator recruitment to LXRβ | unable to recruit coactivators to LXRα | 64.5% | 64.5% | plasma TG was suppressed | antagonized the agonism of 24HC at LXRβ
